Experimental data reported in paper PMC2915818 (2010).

Experiments:
[1] = tested on: HT24 (DNA, G4) TAGGGTTAGGGTTAGGGTTAGGGT; test: fluorescence titration, Equispec fit; settings: 185 mM K+, 185 mM Na+ (as KCl, NaCl); sodium phosphate, 1 mM EDTA, pH 7, 25 °C; excitation 252 nm; 0.2 μM compound
[2] = tested on: 24bcl (DNA, G4) CGGGCGCGGGAGGAAGGGGGCGGG; test: fluorescence titration, Equispec fit; settings: 185 mM K+, 185 mM Na+ (as KCl, NaCl); sodium phosphate, 1 mM EDTA, pH 7, 25 °C; excitation 252 nm; 0.2 μM compound
[3] = tested on: cmyc (DNA, G4) GGGGAGGGTGGGGAGGGTGGGGAAGGTGGGG; test: fluorescence titration, Equispec fit; settings: 185 mM K+, 185 mM Na+ (as KCl, NaCl); sodium phosphate, 1 mM EDTA, pH 7, 25 °C; excitation 252 nm; 0.2 μM compound
[4] = tested on: Ds26 (DNA, duplex) CAATCGGATCGAATTCGATCCGATTG; test: competitive dialysis; settings: 185 mM KCl, 185 mM NaCl; sodium phosphate, 1 mM EDTA, pH 7, room temperature; 50 μM DNA, 1 μM compound
[5] = tested on: TC triplex (DNA, triplex) CCTCCTCTCTTTCCCTTTTTCTTTCTCTCCTCC/GAAAGAGAGGAGG; test: competitive dialysis; settings: 185 mM KCl, 185 mM NaCl; sodium phosphate, 1 mM EDTA, pH 7, room temperature; 50 μM DNA, 1 μM compound
[6] = tested on: Dickerson (DNA, duplex) CGCGAATTCGCG; test: fluorescence titration; settings: 185 mM K+, 185 mM Na+ (as KCl, NaCl); sodium phosphate, 1 mM EDTA, pH 7, 25 °C; up to 10 μM DNA, 0.2 μM compound
[7] = tested on: 24bcl (DNA, G4) CGGGCGCGGGAGGAAGGGGGCGGG; test: competitive dialysis; settings: 185 mM KCl, 185 mM NaCl; sodium phosphate, 1 mM EDTA, pH 7, room temperature; 50 μM DNA, 1 μM compound
[8] = tested on: cmyc (DNA, G4) GGGGAGGGTGGGGAGGGTGGGGAAGGTGGGG; test: competitive dialysis; settings: 185 mM KCl, 185 mM NaCl; sodium phosphate, 1 mM EDTA, pH 7, room temperature; 50 μM DNA, 1 μM compound

log K [1] | log K [2] | log K [3] | binding [4] | binding [5] | binding [6] | binding [7] | binding [8] | SMILES
4.9 ± 0.4 | 6.8 ± 0.5 | 5.5 ± 0.3 | no | weak | no |  |  | CC(=O)NCCN(CC(=O)NCCN(CC(=O)NCCCCCCOC(=O)CCC(=O)N(C)CC(N)=O)C(=O)CNC(=O)c1c2ccccc2nc2ccccc12)C(=O)CNC(=O)c1c2ccccc2nc2ccccc12
 |  | 5.3 ± 0.2 |  |  |  | yes |  | CC(=O)NCCN(CC(=O)NCCN(CC(=O)NCCN(CC(=O)NCCCCCCO)C(=O)CNC(=O)c1c2ccccc2nc2ccccc12)C(=O)CNC(=O)c1c2ccccc2nc2ccccc12)C(=O)CNC(=O)c1c2ccccc2nc2ccccc12

More lines, now with the values behind:

SMILES | log K [1] | log K [2] | log K [3] | binding [4] | binding [5] | binding [6] | binding [7] | binding [8]
CC(=O)NCCN(CC(=O)NCCN(CC(=O)NCCCCCCO)C(=O)CNC(=O)c1c2ccccc2nc2ccccc12)C(=O)CNC(=O)c1c2ccccc2nc2ccccc12 | 4.6 ± 0.5 | 5.1 ± 0.1 | 4.9 ± 0.2 |  |  |  |  | 
CC(=O)NCCN(CC(=O)NCCN(CC(=O)NCCN(CC(=O)NCCCCCCOC(=O)CCC(=O)N(C)CC(N)=O)C(=O)CNC(=O)c1c2ccccc2nc2ccccc12)C(=O)CNC(=O)c1c2ccccc2nc2ccccc12)C(=O)CNC(=O)c1c2ccccc2nc2ccccc12 | 5.3 ± 0.3 | 5.3 ± 0.2 | 4.8 ± 0.5 |  |  |  |  | 
O=C(O)CNC(=O)c1c2ccccc2nc2ccccc12 |  |  |  | weak |  |  | yes | yes
O=C(O)c1c2ccccc2nc2ccccc12 |  |  |  | yes |  |  |  | 
